Laboratory results reported in the kinase profiling compilation of Christmann-Franck et al. (2016).

Key:
Experiment in all cases: KINOMEscan competition binding
Settings in all cases: compound 10.0 µM
PHKG2 (human) = PHKG2 (human) (UniProt P15735)
PRKD1 (human) = PRKD1 (human) (UniProt Q15139)
GRK1 (human) = GRK1 (human) (UniProt Q15835)
PI4KB (human) = PI4KB (human) (UniProt Q9UBF8)
FGFR2 (human) = FGFR2 (human) (UniProt P21802)
RIOK3 (human) = RIOK3 (human) (UniProt O14730)
MAP3K11 (human) = MAP3K11 (human) (UniProt Q16584)
[1] = test system: RET (human), P07949 [M918T]
MATK (human) = MATK (human) (UniProt P42679)
MAPK7 (human) = MAPK7 (human) (UniProt Q13164)
MAP3K5 (human) = MAP3K5 (human) (UniProt Q99683)
[2] = test system: PIK3CA (human), P42336 [Q546K]
MARK3 (human) = MARK3 (human) (UniProt P27448)
MYLK (human) = MYLK (human) (UniProt Q15746)
EPHA5 (human) = EPHA5 (human) (UniProt P54756)
MAST1 (human) = MAST1 (human) (UniProt Q9Y2H9)
[3] = biological target: TYK2 JH1 catalytic (human) (UniProt P29597)
[4] = test system: BRAF (human), P15056 [V600E]
MYLK3 (human) = MYLK3 (human) (UniProt Q32MK0)
RIPK2 (human) = RIPK2 (human) (UniProt O43353)
MELK (human) = MELK (human) (UniProt Q14680)
PIM3 (human) = PIM3 (human) (UniProt Q86V86)
PIP4K2B (human) = PIP4K2B (human) (UniProt P78356)
PHKG1 (human) = PHKG1 (human) (UniProt Q16816)
RPS6KA6 KD2 (human) = RPS6KA6 KD2 (human) (UniProt Q9UK32)
YSK4 (human) = YSK4 (human) (UniProt Q56UN5)
CAMK2D (human) = CAMK2D (human) (UniProt Q13557)
LTK (human) = LTK (human) (UniProt P29376)
FRK (human) = FRK (human) (UniProt P42685)
MET (human) = MET (human) (UniProt P08581)
PRKAA2 (human) = PRKAA2 (human) (UniProt P54646)
STK39 (human) = STK39 (human) (UniProt Q9UEW8)
ACVR1 (human) = ACVR1 (human) (UniProt Q04771)
[5] = test system: EIF2AK4 KD2 (human), Q9P2K8 [S808G]
CAMK2B (human) = CAMK2B (human) (UniProt Q13554)
DYRK1B (human) = DYRK1B (human) (UniProt Q9Y463)
[6] = test system: RET (human), P07949 [V804L]
ABL2 (human) = ABL2 (human) (UniProt P42684)
CDK11B (human) = CDK11B (human) (UniProt P21127)
[7] = test system: FLT3 (human), P36888 [D835Y]
PIK3CA (human) = PIK3CA (human) (UniProt P42336)
Sequence of PIK3CA (human) (P42336 whole entry, looked up): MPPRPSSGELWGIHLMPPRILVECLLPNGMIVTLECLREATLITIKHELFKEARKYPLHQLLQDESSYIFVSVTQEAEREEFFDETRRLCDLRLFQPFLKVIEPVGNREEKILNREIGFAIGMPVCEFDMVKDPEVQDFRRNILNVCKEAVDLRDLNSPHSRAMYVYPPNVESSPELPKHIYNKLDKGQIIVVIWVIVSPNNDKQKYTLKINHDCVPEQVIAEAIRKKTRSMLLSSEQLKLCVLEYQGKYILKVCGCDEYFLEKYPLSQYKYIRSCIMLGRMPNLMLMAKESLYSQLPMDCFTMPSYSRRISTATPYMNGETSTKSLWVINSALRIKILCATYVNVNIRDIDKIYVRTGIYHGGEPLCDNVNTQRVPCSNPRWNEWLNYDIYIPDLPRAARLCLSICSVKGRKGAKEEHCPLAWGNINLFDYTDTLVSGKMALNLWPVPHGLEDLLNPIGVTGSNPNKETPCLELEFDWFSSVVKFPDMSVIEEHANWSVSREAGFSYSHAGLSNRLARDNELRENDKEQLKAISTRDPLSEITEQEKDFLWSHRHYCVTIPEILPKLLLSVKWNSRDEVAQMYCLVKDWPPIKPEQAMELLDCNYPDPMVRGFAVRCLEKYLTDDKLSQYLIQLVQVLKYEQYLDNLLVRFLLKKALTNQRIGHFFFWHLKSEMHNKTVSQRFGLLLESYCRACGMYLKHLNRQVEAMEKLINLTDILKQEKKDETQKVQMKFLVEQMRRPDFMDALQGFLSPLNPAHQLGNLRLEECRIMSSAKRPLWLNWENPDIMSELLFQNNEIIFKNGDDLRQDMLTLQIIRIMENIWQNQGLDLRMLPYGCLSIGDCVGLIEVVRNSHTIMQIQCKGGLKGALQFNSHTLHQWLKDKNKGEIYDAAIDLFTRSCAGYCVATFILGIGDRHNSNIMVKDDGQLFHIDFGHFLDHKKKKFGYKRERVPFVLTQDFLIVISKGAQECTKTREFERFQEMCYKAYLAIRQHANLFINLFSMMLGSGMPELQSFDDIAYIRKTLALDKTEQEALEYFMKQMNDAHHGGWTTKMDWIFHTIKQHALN

Sequence of CAMK2D (human) (Q13557 whole entry, looked up): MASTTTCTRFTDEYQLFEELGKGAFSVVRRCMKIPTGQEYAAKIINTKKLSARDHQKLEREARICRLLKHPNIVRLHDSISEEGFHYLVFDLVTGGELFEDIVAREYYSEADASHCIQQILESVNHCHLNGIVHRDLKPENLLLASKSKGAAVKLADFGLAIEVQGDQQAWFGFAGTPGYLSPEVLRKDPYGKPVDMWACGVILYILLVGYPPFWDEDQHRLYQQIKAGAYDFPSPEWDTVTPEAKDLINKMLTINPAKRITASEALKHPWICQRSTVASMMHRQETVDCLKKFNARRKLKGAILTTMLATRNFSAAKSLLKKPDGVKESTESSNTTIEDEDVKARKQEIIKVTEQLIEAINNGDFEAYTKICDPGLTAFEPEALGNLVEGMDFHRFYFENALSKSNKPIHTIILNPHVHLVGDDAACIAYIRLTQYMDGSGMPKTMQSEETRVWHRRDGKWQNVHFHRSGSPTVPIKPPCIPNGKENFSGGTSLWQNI
Sequence of PHKG1 (human) (Q16816 whole entry, looked up): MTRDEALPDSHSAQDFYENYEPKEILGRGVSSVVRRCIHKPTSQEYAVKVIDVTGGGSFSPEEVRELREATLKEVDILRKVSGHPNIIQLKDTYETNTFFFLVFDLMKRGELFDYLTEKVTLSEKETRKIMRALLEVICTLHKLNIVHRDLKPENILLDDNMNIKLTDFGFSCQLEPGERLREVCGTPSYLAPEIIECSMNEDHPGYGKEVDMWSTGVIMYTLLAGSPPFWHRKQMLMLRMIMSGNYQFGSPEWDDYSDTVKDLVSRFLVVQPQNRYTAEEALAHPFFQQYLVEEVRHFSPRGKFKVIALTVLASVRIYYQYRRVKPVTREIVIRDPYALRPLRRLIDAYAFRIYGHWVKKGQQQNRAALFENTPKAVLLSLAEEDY
Sequence of MARK3 (human) (P27448 whole entry, looked up): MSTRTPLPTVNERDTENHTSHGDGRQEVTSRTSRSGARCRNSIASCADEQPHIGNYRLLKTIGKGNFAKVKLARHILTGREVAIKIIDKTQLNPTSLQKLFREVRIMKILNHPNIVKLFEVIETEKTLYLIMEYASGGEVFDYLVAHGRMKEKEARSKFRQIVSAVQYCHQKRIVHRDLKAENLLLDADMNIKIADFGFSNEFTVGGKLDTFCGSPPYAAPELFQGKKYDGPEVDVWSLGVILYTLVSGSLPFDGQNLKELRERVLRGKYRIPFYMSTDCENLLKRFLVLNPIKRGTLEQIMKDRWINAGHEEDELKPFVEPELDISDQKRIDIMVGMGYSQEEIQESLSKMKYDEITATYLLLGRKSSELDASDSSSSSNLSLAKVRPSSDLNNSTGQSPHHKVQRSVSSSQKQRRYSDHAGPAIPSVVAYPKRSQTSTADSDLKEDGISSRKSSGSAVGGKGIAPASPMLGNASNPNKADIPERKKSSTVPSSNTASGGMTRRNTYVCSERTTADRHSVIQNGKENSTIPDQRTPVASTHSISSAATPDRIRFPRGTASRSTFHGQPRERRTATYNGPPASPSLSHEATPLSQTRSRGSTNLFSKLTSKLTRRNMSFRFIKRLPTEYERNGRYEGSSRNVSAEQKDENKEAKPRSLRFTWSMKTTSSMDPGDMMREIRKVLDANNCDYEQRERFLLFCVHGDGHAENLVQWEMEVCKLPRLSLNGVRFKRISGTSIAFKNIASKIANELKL
Sequence of FGFR2 (human) (P21802 whole entry, looked up): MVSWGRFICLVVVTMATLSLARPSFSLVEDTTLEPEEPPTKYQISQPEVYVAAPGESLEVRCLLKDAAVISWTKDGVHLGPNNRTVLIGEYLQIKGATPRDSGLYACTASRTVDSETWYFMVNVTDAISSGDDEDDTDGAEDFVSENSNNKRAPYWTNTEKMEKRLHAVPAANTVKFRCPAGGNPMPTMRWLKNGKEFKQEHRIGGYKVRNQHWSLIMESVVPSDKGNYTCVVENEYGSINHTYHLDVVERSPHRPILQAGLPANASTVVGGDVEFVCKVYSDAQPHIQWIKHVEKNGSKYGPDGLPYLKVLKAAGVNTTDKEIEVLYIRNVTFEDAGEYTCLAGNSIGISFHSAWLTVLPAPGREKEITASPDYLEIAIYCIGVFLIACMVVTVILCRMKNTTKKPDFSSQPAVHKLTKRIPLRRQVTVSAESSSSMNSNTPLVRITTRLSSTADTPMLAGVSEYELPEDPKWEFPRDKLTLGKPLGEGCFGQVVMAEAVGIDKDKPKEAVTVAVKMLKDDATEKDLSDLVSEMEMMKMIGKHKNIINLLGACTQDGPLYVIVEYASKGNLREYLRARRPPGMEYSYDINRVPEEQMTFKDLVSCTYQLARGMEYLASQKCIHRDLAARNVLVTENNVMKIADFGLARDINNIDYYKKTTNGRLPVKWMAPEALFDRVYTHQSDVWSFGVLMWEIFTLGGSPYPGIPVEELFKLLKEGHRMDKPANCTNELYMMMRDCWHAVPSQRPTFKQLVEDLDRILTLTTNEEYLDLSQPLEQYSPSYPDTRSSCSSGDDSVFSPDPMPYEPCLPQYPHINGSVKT
Sequence of EPHA5 (human) (P54756 whole entry, looked up): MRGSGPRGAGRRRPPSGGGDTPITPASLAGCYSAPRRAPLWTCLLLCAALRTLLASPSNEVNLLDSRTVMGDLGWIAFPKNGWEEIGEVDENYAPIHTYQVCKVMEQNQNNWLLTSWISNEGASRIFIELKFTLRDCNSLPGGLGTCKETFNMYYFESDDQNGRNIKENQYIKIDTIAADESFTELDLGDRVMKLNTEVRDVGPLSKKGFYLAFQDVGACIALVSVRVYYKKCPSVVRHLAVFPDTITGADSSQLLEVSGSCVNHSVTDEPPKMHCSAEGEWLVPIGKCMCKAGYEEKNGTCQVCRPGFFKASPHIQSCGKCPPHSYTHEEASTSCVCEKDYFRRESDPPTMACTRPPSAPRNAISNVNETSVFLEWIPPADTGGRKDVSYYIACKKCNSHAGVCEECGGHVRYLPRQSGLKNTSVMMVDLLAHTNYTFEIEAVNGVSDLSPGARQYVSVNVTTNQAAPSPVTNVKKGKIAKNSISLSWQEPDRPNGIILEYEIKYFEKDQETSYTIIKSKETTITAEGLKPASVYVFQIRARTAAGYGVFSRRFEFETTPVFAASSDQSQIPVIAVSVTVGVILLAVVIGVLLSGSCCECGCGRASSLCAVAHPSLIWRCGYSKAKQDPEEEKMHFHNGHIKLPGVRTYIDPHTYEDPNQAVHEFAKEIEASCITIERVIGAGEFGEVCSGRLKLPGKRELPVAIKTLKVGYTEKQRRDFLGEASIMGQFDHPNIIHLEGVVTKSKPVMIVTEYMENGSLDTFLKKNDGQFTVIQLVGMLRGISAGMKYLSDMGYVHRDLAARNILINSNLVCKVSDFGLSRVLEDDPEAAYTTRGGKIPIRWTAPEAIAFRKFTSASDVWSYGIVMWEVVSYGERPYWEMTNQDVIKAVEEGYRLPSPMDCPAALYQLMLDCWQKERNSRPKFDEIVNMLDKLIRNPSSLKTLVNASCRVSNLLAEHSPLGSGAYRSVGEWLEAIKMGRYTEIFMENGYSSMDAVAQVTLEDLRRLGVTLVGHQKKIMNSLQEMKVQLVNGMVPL
Sequence of MATK (human) (P42679 whole entry, looked up): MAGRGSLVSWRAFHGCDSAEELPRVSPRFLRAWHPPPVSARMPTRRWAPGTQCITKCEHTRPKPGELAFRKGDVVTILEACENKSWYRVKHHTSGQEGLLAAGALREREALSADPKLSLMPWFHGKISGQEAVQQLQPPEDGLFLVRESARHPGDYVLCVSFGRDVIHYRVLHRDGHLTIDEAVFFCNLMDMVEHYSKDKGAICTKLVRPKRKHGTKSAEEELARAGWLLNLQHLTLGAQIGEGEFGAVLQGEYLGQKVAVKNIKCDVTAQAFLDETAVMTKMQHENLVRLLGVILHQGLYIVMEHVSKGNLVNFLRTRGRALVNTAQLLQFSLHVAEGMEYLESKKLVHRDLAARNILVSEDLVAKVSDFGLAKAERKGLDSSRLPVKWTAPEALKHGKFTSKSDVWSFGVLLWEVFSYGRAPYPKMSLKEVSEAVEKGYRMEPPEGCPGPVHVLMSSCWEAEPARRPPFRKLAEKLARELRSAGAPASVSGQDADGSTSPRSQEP

kinase still bound, per cent of control (PHKG2 (human)): 5.6%
kinase still bound, per cent of control (PRKD1 (human)): 100%
kinase still bound, per cent of control (GRK1 (human)): 60%
kinase still bound, per cent of control (PI4KB (human)): 39%
kinase still bound, per cent of control (FGFR2 (human)): 15%
kinase still bound, per cent of control (RIOK3 (human)): 8.4%
kinase still bound, per cent of control (MAP3K11 (human)): 5.6%
kinase still bound, per cent of control [1]: 0%
kinase still bound, per cent of control (MATK (human)): 30%
kinase still bound, per cent of control (MAPK7 (human)): 100%
kinase still bound, per cent of control (MAP3K5 (human)): 100%
kinase still bound, per cent of control [2]: 100%
kinase still bound, per cent of control (MARK3 (human)): 28%
kinase still bound, per cent of control (MYLK (human)): 6.5%
kinase still bound, per cent of control (EPHA5 (human)): 30%
kinase still bound, per cent of control (MAST1 (human)): 2.8%
kinase still bound, per cent of control [3]: 3%
kinase still bound, per cent of control [4]: 84%
kinase still bound, per cent of control (MYLK3 (human)): 0.4%
kinase still bound, per cent of control (RIPK2 (human)): 69%
kinase still bound, per cent of control (MELK (human)): 8.7%
kinase still bound, per cent of control (PIM3 (human)): 30%
kinase still bound, per cent of control (PIP4K2B (human)): 1.5%
kinase still bound, per cent of control (PHKG1 (human)): 15%
kinase still bound, per cent of control (RPS6KA6 KD2 (human)): 83%
kinase still bound, per cent of control (YSK4 (human)): 3.8%
kinase still bound, per cent of control (CAMK2D (human)): 2.1%
kinase still bound, per cent of control (LTK (human)): 100%
kinase still bound, per cent of control (FRK (human)): 2.6%
kinase still bound, per cent of control (MET (human)): 86%
kinase still bound, per cent of control (PRKAA2 (human)): 4.2%
kinase still bound, per cent of control (STK39 (human)): 37%
kinase still bound, per cent of control (ACVR1 (human)): 32%
kinase still bound, per cent of control [5]: 14%
kinase still bound, per cent of control (CAMK2B (human)): 3.6%
kinase still bound, per cent of control (DYRK1B (human)): 13%
kinase still bound, per cent of control [6]: 0%
kinase still bound, per cent of control (ABL2 (human)): 1.2%
kinase still bound, per cent of control (CDK11B (human)): 100%
kinase still bound, per cent of control [7]: 0%
kinase still bound, per cent of control (PIK3CA (human)): 93%
Compound: O=C1Nc2cc(Br)ccc2/C1=C1/Nc2ccccc2/C1=N\O
